These results are taken from patent US20130115256A1, “METHODS FOR TREATING OR PREVENTING VASCULAR GRAFT FAILURE” (priority 2010, published 2013).

Common to all, as to format: biochemical
For one experiment, the target named is T1, MKK3 (Homo sapiens, UniProt P46734).
T1 sequence (P46734 1-347): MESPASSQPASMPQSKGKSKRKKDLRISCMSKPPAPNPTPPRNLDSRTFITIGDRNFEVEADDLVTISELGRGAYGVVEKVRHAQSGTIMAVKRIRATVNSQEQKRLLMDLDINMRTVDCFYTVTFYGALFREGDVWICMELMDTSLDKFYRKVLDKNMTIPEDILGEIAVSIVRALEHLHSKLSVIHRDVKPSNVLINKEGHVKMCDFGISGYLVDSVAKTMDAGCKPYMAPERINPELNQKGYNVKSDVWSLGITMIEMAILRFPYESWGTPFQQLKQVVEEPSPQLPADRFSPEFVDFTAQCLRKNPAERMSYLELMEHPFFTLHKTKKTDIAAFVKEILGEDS
Description: MKK3 kinase activity (data not shown). The following applies: concentration that inhibits >95% of MK2. The text has this:
(§1) A commercial radiometric assay service was used to test the specificity and potency of MMI-0100 ([…]; SEQ ID NO: 1) by measuring its half maximal inhibitory concentrations (IC50). This quantitative assay measures how much MK2 inhibitor (MMI-0100; […] (SEQ ID NO: 1)) is needed to inhibit 50% of a given biological process or component of a process (i.e., an enzyme, cell, or cell receptor). Specifically, in these assays, a positively charged substrate is phosphorylated with a radiolabeled phosphate group from an ATP if the kinase is not inhibited by an inhibitor peptide. The positively charged substrate then is attracted to a negatively charged filter membrane, quantified with a scintillation counter, and compared to a 100% activity control. ATP concentrations within 15 μM of the apparent Km for ATP were chosen since an ATP concentration near the Km may allow for the kinases to have the same relative amount of phosphorylation activity. The individual conditions for each radiometric assay are as follows.
(§2) IC50 values for inhibitor peptides were determined using Millipore's IC50 Profiler Express service. The IC50 value was estimated from a 10-point curve of one-half log dilutions. […]

For a further experiment, the target named is T2, MEK1 (Homo sapiens, UniProt Q02750).
T2 construct: purchased Millipore (KinaseProfiler service)
The experiment is described as follows: MEK1 radiometric kinase assay. As to conditions: MMI-0100 100 μM; remaining kinase activity.
Text: as §1
The reaction was initiated by adding the MgATP. After incubation for 40 minutes at room temperature, 5 μl of this incubation mix was used to initiate the MAPK2 radiometric assay whose reaction condition was the same as the condition for p38 MAPK assay described above.
IC50 values for inhibitor peptides were determined using Millipore's IC50 Profiler Express service. […]

A further experiment has as its target T3, MKK6 (Homo sapiens, UniProt P52564).
T3 construct: purchased Millipore (KinaseProfiler service)
T3 sequence (P52564 1-334): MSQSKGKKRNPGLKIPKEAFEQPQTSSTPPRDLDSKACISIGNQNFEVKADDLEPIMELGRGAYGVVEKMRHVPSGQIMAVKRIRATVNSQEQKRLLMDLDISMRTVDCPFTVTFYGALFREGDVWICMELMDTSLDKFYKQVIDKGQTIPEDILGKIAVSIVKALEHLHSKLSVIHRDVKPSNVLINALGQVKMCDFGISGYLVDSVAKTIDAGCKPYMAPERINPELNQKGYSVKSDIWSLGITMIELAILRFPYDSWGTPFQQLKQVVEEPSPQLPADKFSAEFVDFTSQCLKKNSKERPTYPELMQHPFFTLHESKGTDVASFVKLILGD
The experiment is described as follows: MKK6 radiometric kinase assay. The following applies: MMI-0100 100 μM; remaining kinase activity.
Text: as §1
The reaction was initiated by adding the MgATP. After incubation for 40 minutes at room temperature, 5 μl of the incubation mix was used to initiate the p38MAPK radiometric assay described above.
as §2

With YARAAARQARAKALARQLGVAA [MMI-0100], on MKK3, the “reduction in MKK3 activity” value was “no reduction”. Besides, at MEK1, the “Percent Activity, MEK1” value was 68%. For the same sequence, on MKK6, the “Percent Activity, MKK6” value is listed as 50%.
